Measurements as given in patent US20250177408A1, “INHIBITOR OF INTERACTION BETWEEN YAP/TAZ AND TEAD, PREPARATION THEREOF, PHARMACEUTICAL COMPOSITION THEREOF AND USE THEREOF” (ETERN BIOPHARMA (SHANGHAI) CO., LTD., priority 2022, published 2025).

How the values were obtained:
[1] = test system: MSTO-211H cells; assay: Cell proliferation inhibition experiment (CellTiter-Glo); type: cell-based; settings: Homo sapiens, 96 hours, read-out: Inhibitory activity of each compound on the proliferation of MSTO-211H cells (grades of IC50 values)
Procedure, shortened: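 MSTO-211H cells (1500/well, RPMI1640 + 10% FBS) were plated overnight at 37° C, 5% CO2, then exposed in duplicate to 9 three-fold compound dilutions (DMSO ≤0.5% final) for 96 hours. Viability was read as CellTiter-Glo luminescence after 10 min at room temperature. IC50 was derived from inhibition of the CTG signal.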

[2] = test system: YAP/TEAD reporter gene; assay: YAP/TEAD reporter gene inhibition experiment in SF268-YAP-Luc cells; type: cell-based; settings: SF268-YAP-Luc cells, 24 hours, Renila luciferase signal corrected for cell viability; read-out: Activity of each compound in inhibiting the expression of YAP/TEAD reporter gene (grades of IC50 values)
Protocol: In this example, the inhibition of the compound on the target was detected by the signal of the reporter gene in the stable cell line SF268-YAP-Luc containing the YAP/TEAD reporter gene.
A sequence containing 6 tandem YAP/TEAD binding sites and a basal transcription promoter was constructed on the vector pGL4.76 of Promega Company. The constructed reporter gene vector was transfected into SF268 cells (NCI DCTD tumor/cell line repository) and screened with 0.5 μg/mL hygromycin to obtain SF268-YAP-Luc stable strain.
SF268-YAP-Luc cells were seeded into a 96-well plate at a density of 3000 cells per well with a volume of 100 μL per well (cell culture medium composition: RPMI1640 (Gibco-A10491-01)+10% FBS (Gibco-10099-141C)+1% penicillin-streptomycin (5,000 U/mL, Gibco-15070-063)), and the cells were incubated overnight in a 37° C., 5% carbon dioxide incubator.
On the next day, the compounds to be tested were 3-fold diluted, and a total of 8 concentration gradients were set up; a certain volume of DMSO or the compounds to be tested was added to each well, respectively, and 2 replicates were set up for each concentration, and the final concentration of DMSO was controlled to be no higher than 0.5%. The cells were incubated for 24 hours in a 37° C., 5% carbon dioxide incubator. Two identical parallel plates were set up for cell seeding and compound treatment.
Renila-Glo luciferase assay system kit (Promega, E2720) was used to detect the reporter gene signals of the control group and treatment group. 70 μL of Renila-Glo was added to each well, mixed well, and incubated at room temperature for 10 minutes. The signal was read using EnVision® Multilabel Plate Reader (Perkin Elmer).
Cell viability was detected in the control group and treatment group using CellTiter-Glo Luminescent Cell Viability Assay kit (Promega, G7570). 50 μL of CellTiter-Glo was added to each well, mixed well, and incubated at room temperature for 10 minutes. The signal was read using En Vision® Multilabel Plate Reader (Perkin Elmer).
The signal of Renila luciferase after correcting for cell viability was analyzed, and the inhibition rate of the compound on the reporter gene was calculated. The inhibition percentage (%) is calculated by the following formula: […]
Using Graphpad Prism software, the IC50 values for the compounds' inhibitory activity against Renila luciferase signaling were calculated.

[3] = biological target: YAP-TEAD protein interaction (His-TEAD1 (209-426) protein, Bio-YAP peptide (60-100)) (Homo sapiens, UniProt P28347); assay: YAP-TEAD protein interaction HTRF experiment; type: binding; settings: His-TEAD1 (209-426) 10 nM, Bio-YAP peptide 50 nM, read-out: Activity of each compound in blocking YAP-TEAD protein interaction (grades of IC50 values)
Procedure, shortened: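 His-TEAD1 (209-426) at 10 nM final was preincubated 20 min at RT with compounds (10-point 3-fold dilutions, duplicates, 1% DMSO), then Bio-YAP peptide, 10 min. Anti-His-Eu cryptate/streptavidin-XL665 added for 1 h at RT; HTRF read at ex 320 nm, Em665/Em620 ratio ×10000, IC50 from % inhibition.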

Sequence of YAP-TEAD protein interaction (His-TEAD1 (209-426) protein, Bio-YAP peptide (60-100)) (P28347 209-426): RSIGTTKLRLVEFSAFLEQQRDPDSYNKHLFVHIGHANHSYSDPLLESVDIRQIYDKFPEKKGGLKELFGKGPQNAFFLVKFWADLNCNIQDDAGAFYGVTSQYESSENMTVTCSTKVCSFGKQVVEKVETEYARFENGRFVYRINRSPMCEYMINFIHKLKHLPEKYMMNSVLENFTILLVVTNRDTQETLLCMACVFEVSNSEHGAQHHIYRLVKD

| Structure (SMILES) | IC50 [3] [µM] | IC50 [1] [µM] | IC50 [2] [µM] |
| --- | --- | --- | --- |
| Cn1cc2c(n1)Oc1c(cc(C(N)=O)c(-c3c(Cl)c(F)cc4c3C[C@](c3ccccc3)([C@@H]3CCCN3)O4)c1F)O2 (atropisomer, axis not shown) [Compound 8, (S)-7-((S)-5-Chloro-6-fluoro-2-phenyl-2-((S)-pyrrolidin-2-yl)-2,3-dihydrobenzofuran-4-yl)-8-fluoro-2-methyl-2H-benzo[5,6][1,4]dioxoino[2,3-c]pyrazole-6-carboxamide] | < 0.05 | < 0.2 | < 0.05 |
| Cn1cc2c(n1)COc1c-2cc(C(N)=O)c(-c2c(Cl)c(F)cc3c2C[C@](c2ccccc2)([C@@H]2CCCN2)O3)c1F (atropisomer, axis not shown) [Compound 3, (S)-7-((S)-5-Chloro-6-fluoro-2-phenyl-2-((S)-pyrrolidin-2-yl)-2,3-dihydrobenzofuran-4-yl)-6-fluoro-2-methyl-2,4-dihydrochromeno[3,4-c]pyrazole-8-carboxamide] | < 0.05 | < 0.2 | < 0.05 |
| CN1C(=O)COc2c1cc(C(N)=O)c(-c1c(Cl)c(F)cc3c1C[C@](c1ccccc1)([C@@H]1CCCN1)O3)c2F (atropisomer, axis not shown) [Compound I-25, (S)-7-((S)-5-Chloro-6-fluoro-2-phenyl-2-((S)-pyrrolidin-2-yl)-2,3-dihydrobenzofuran-4-yl)-8-fluoro-4-methyl-3-oxo-3,4-dihydro-2H-benzo[b][1,4]oxazine-6-carboxamide] | < 0.05 | 0.2 to 0.5 | 0.05 to 0.5 |
| NC(=O)c1cc2c(c(F)c1-c1c(Cl)c(F)cc3c1C[C@](c1ccccc1)([C@@H]1CCCN1)O3)OCC(=O)N2 (atropisomer, axis not shown) [Compound I-23, (S)-7-((S)-5-Chloro-6-fluoro-2-phenyl-2-((S)-pyrrolidin-2-yl)-2,3-dihydrobenzofuran-4-yl)-8-fluoro-3-oxo-3,4-dihydro-2H-benzo[b][1,4]oxazine-6-carboxamide] | < 0.05 | < 0.2 | 0.05 to 0.5 |
| CNC[C@@]1(c2ccccc2)Cc2c(cc(F)c(Cl)c2-c2c(C(N)=O)cn3ccnc3c2F)O1 (atropisomer, axis not shown) [Compound I-1] | < 0.05 | < 0.2 | < 0.05 |

Now from value to molecule, other results behind:

| IC50 [3] [µM] | Structure (SMILES) | IC50 [1] [µM] | IC50 [2] [µM] |
| --- | --- | --- | --- |
| < 0.05 | CC(=O)N1CCOc2c1cc(C(N)=O)c(-c1c(Cl)c(F)cc3c1C[C@](c1ccccc1)([C@@H]1CCCN1)O3)c2F (atropisomer, axis not shown) [Compound I-27, (S)-4-Acetyl-7-((S)-5-chloro-6-fluoro-2-phenyl-2-((S)-pyrrolidin-2-yl)-2,3-dihydrobenzofuran-4-yl)-8-fluoro-3,4-dihydro-2H-benzo[b][1,4]oxazine-6-carboxamide] | 0.2 to 0.5 | < 0.05 |
| < 0.05 | NC(=O)c1cc2c(c(F)c1-c1c(Cl)c(F)cc3c1C[C@](c1ccccc1)([C@@H]1CCCN1)O3)OCCO2 (atropisomer, axis not shown) [Compound 1, 7-((2S,4S)-5-Chloro-6-fluoro-2-phenyl-2-((S)-pyrrolidin-2-yl)-2,3-dihydrobenzofuran-4-yl)-8-fluoro-2,3-dihydrobenzo[b][1,4]dioxine-6-carboxamide] | < 0.2 | < 0.05 |
| < 0.05 | NC(=O)c1cc2c(c(F)c1-c1c(Cl)c(F)cc3c1CC(c1ccccc1)(C1CCCN1)O3)OCCN2 [Compound I-19, (S)-7-((S)-5-Chloro-6-fluoro-2-phenyl-2-((S)-pyrrolidin-2-yl)-2,3-dihydrobenzofuran-4-yl)-8-fluoro-3,4-dihydro-2H-benzo[b][1,4]oxazine-6-carboxamide] | – | < 0.05 |
| < 0.05 | CN1CCOc2c1cc(C(N)=O)c(-c1c(Cl)c(F)cc3c1C[C@](c1ccccc1)([C@@H]1CCCN1)O3)c2F (atropisomer, axis not shown) [Compound I-24, (S)-7-((S)-5-Chloro-6-fluoro-2-phenyl-2-((S)-pyrrolidin-2-yl)-2,3-dihydrobenzofuran-4-yl)-8-fluoro-4-methyl-3,4-dihydro-2H-benzo[b][1,4]oxazine-6-carboxamide] | < 0.2 | < 0.05 |
